Legend:
[1] = Stability in human liver S9 fractions assessed as prodrug conversion per mg of protein; type: ADME, subcellular, S9 fraction
Rattus norvegicus [2] = test: Reduction in blood glucose level in fasted Sprague-Dawley rat at 30 mg/kg, po relative to control; type: functional; set-up: scale not given: the % may be the effect or the level left
Rattus norvegicus [3] = test: Reduction in blood glucose level in Sprague-Dawley rat assessed as time of maximum glucose lowering at 30 mg/kg, po; type: functional
Hepatocyte = test: Drug uptake in cryopreserved human hepatocytes per million cells at 100 uM after 60 mins; type: ADME, cell-based; settings: 1 h
Rattus norvegicus [4] = test: Bioavailability in fasted Sprague-Dawley rat assessed as urinary excretion of phosphoric acid at 10 to 50 mg/kg, po after 24 hrs by HPLC relative to iv dosed phosphoric acid; type: ADME, organism-based, Urine; settings: in vivo
Rattus norvegicus [5] = test: Reduction in blood glucose level in fasted Sprague-Dawley rat at <=10 mg/kg, iv relative to control; type: functional; set-up: scale not given: the % may be the effect or the level left

## CCOC(=O)[C@H](C)NP(=O)(N[C@@H](C)C(=O)OCC)c1ccc(-c2nc(N)sc2CC(C)C)o1
[1]
  Stability: 0.004 nM/min
Rattus norvegicus [2]
  Activity: 59%
Rattus norvegicus [3]
  Time: 2 h
Hepatocyte
  Drug uptake: 7 nmol
Rattus norvegicus [4]
  F: 22%

## CCOC(=O)CNP(=O)(NCC(=O)OCC)c1ccc(-c2nc(N)sc2CC(C)C)o1
Rattus norvegicus [2]
  Activity: 51%
Rattus norvegicus [3]
  Time: 2 h
Rattus norvegicus [4]
  F: 26%

## CC(C)Cc1sc(N)nc1-c1ccc(P(=O)(OCOC(=O)C(C)(C)C)OCOC(=O)C(C)(C)C)o1
Rattus norvegicus [4]
  F: 11%

## CC(C)Cc1sc(N)nc1-c1ccc(P(=O)(NCC(=O)OCc2ccccc2)NCC(=O)OCc2ccccc2)o1
Rattus norvegicus [4]
  F: 17%

## CCCSc1sc(N)nc1-c1ccc(P(=O)(NC(C)(C)C(=O)OCC)NC(C)(C)C(=O)OCC)o1
Rattus norvegicus [2]
  Activity: 51%
Rattus norvegicus [3]
  Time: 2 h
Rattus norvegicus [4]
  F: 31%

## CCCSc1sc(N)nc1-c1ccc(P(=O)(N[C@@H](COC(C)(C)C)C(=O)OC)N[C@@H](COC(C)(C)C)C(=O)OC)o1
Rattus norvegicus [4]
  F: 9%

## CC(C)Cc1sc(N)nc1-c1ccc(P(=O)(NCC(=O)OC(C)(C)C)NCC(=O)OC(C)(C)C)o1
Rattus norvegicus [4]
  F: 9%

## CCCSc1sc(N)nc1-c1ccc(P(=O)(N[C@@H](C)C(=O)OCC)N[C@@H](C)C(=O)OCC)o1
Rattus norvegicus [4]
  F: 17%

## CCOC(=O)c1sc(N)nc1-c1ccc(P(=O)(N[C@H](C(=O)OCC)C(C)C)N[C@H](C(=O)OCC)C(C)C)o1
Rattus norvegicus [4]
  F: 6%

## CCOC(=O)[C@H](CC(C)C)NP(=O)(N[C@@H](CC(C)C)C(=O)OCC)c1ccc(-c2nc(N)sc2CC(C)C)o1
Rattus norvegicus [4]
  F: 3%

## CCOC(=O)c1sc(N)nc1-c1ccc(P(=O)(NC2(C(=O)OCC)CCCC2)NC2(C(=O)OCC)CCCC2)o1
Rattus norvegicus [4]
  F: 5%

## CC(C)COC(=O)[C@H](C)NP(=O)(N[C@@H](C)C(=O)OCC(C)C)c1ccc(-c2nc(N)sc2CC(C)C)o1
Rattus norvegicus [4]
  F: 10%

## CCOC(=O)[C@H](C)NP(=O)(N[C@@H](C)C(=O)OCC)c1ccc(-c2nc(N)sc2-c2ccccc2)o1
Rattus norvegicus [4]
  F: 31%

## CCCSc1sc(N)nc1-c1ccc(P(=O)(NC2(C(=O)OCC)CCCC2)NC2(C(=O)OCC)CCCC2)o1
Rattus norvegicus [4]
  F: 49%

## CC(C)Cc1sc(N)nc1-c1ccc(P(=O)(N[C@@H](C)C(=O)OCC(C)(C)C)N[C@@H](C)C(=O)OCC(C)(C)C)o1
Rattus norvegicus [4]
  F: 18%

## CCCSc1sc(N)nc1-c1ccc(P(=O)(N[C@@H](C)C(=O)OC(C)C)N[C@@H](C)C(=O)OC(C)C)o1
Rattus norvegicus [4]
  F: 17%

## CCCOC(=O)[C@H](C)NP(=O)(N[C@@H](C)C(=O)OCCC)c1ccc(-c2nc(N)sc2SCCC)o1
Rattus norvegicus [4]
  F: 19%

## CC(C)Cc1sc(N)nc1-c1ccc(P(=O)(N[C@@H](C)C(=O)OC(C)C)N[C@@H](C)C(=O)OC(C)C)o1
Rattus norvegicus [2]
  Activity: 63%
Rattus norvegicus [3]
  Time: 2 h
Rattus norvegicus [4]
  F: 31%

## CCCOC(=O)[C@H](C)NP(=O)(N[C@@H](C)C(=O)OCCC)c1ccc(-c2nc(N)sc2CC(C)C)o1
Rattus norvegicus [4]
  F: 16%

## CCOC(=O)c1sc(N)nc1-c1ccc(P(=O)(N[C@@H](CC)C(=O)OCC)N[C@@H](CC)C(=O)OCC)o1
Rattus norvegicus [4]
  F: 5%

## CCC[C@H](NP(=O)(N[C@@H](CCC)C(=O)OCC)c1ccc(-c2nc(N)sc2C(=O)OCC)o1)C(=O)OCC
Rattus norvegicus [4]
  F: 4%

## CC(C)OC(=O)[C@H](C)NP(=O)(N[C@@H](C)C(=O)OC(C)C)c1ccc(-c2nc(N)sc2-c2ccccc2)o1
Rattus norvegicus [2]
  Activity: 19%
Rattus norvegicus [3]
  Time: 5 h
Rattus norvegicus [4]
  F: 23%

## CCOC(=O)C(C)(C)NP(=O)(NC(C)(C)C(=O)OCC)c1ccc(-c2nc(N)sc2-c2ccccc2)o1
Rattus norvegicus [2]
  Activity: 25%
Rattus norvegicus [3]
  Time: 2 h
Rattus norvegicus [4]
  F: 30%

## CCOC(=O)[C@H](C)NP(=O)(N[C@@H](C)C(=O)OCC)c1ccc(-c2nc(N)sc2SC)o1
Rattus norvegicus [2]
  Activity: 38%
Rattus norvegicus [3]
  Time: 2 h
Rattus norvegicus [4]
  F: 23%

## CCOC(=O)c1sc(N)nc1-c1ccc(P(=O)(N[C@@H](C)C(=O)OCC)N[C@@H](C)C(=O)OCC)o1
Rattus norvegicus [2]
  Activity: 12%
Rattus norvegicus [3]
  Time: 3 h
Rattus norvegicus [4]
  F: 30%

## CCCSc1sc(N)nc1-c1ccc(P(=O)(NC2(C(=O)OCC)CCCCC2)NC2(C(=O)OCC)CCCCC2)o1
Rattus norvegicus [4]
  F: 1%

## CCCCOC(=O)[C@H](C)NP(=O)(N[C@@H](C)C(=O)OCCCC)c1ccc(-c2nc(N)sc2SCCC)o1
Rattus norvegicus [4]
  F: 2%

## CCOC(=O)[C@@H](NP(=O)(N[C@H](C(=O)OCC)C(C)C)c1ccc(-c2nc(N)sc2CC(C)C)o1)C(C)C
Rattus norvegicus [4]
  F: 7%

## CCOC(=O)[C@H](CC)NP(=O)(N[C@@H](CC)C(=O)OCC)c1ccc(-c2nc(N)sc2CC(C)C)o1
Rattus norvegicus [4]
  F: 8%

## CCOC(=O)C(C)(C)NP(=O)(c1ccc(-c2nc(N)sc2CC(C)C)o1)N1CCOCC1 (configuration not stated)
Rattus norvegicus [4]
  F: 32%

## COC(=O)CNP(=O)(COCCn1cnc2c(N)ncnc21)NCC(=O)OC
Rattus norvegicus [4]
  F: 2%

## CSc1sc(N)nc1-c1ccc(P(=O)(O)O)o1
Rattus norvegicus [5]
  Activity: >50%

## CCOC(=O)C(C)(C)NP(=O)(COCCn1cnc2c(N)ncnc21)NC(C)(C)C(=O)OCC
Rattus norvegicus [4]
  F: 4%

## CC(C)Cc1sc(N)nc1-c1ccc(P(=O)(OCOC(=O)OC(C)C)OCOC(=O)OC(C)C)o1
Rattus norvegicus [4]
  F: 13%

## CC(C)Cc1sc(N)nc1-c1ccc(P(=O)(N[C@@H](C)C(=O)OCc2ccccc2)N[C@@H](C)C(=O)OCc2ccccc2)o1
Rattus norvegicus [4]
  F: 11%

## CCOC(=O)c1sc(N)nc1-c1ccc(P(=O)(O)O)o1
Rattus norvegicus [5]
  Activity: >50%

## Nc1nc(-c2ccc(P(=O)(O)O)o2)c(-c2ccccc2)s1
Rattus norvegicus [5]
  Activity: >50%

## CCOC(=O)[C@H](CSCc1ccccc1)NP(=O)(N[C@@H](CSCc1ccccc1)C(=O)OCC)c1ccc(-c2nc(N)sc2CC(C)C)o1
Rattus norvegicus [4]
  F: 5%

## CCOC(=O)[C@H](Cc1ccccc1)NP(=O)(N[C@@H](Cc1ccccc1)C(=O)OCC)c1ccc(-c2nc(N)sc2CC(C)C)o1
Rattus norvegicus [4]
  F: 3%

## CCCSc1sc(N)nc1-c1ccc(P(=O)(N[C@@H](C)C(=O)OC2CCCCCC2)N[C@@H](C)C(=O)OC2CCCCCC2)o1
Rattus norvegicus [4]
  F: 12%

## CC(C)CNP(=O)(NCC(C)C)c1ccc(-c2nc(N)sc2CC(C)C)o1
Rattus norvegicus [4]
  F: 0%

## CCCSc1sc(N)nc1-c1ccc(P(=O)(O)O)o1
Rattus norvegicus [5]
  Activity: >50%

## CCOC(=O)C1(NP(=O)(NC2(C(=O)OCC)CCCC2)c2ccc(-c3nc(N)sc3CC(C)C)o2)CCCC1
Rattus norvegicus [2]
  Activity: 20%
Rattus norvegicus [3]
  Time: 2 h
Rattus norvegicus [4]
  F: 27%

## COC(=O)[C@@H](C)NP(=O)(N[C@H](C)C(=O)OC)c1ccc(-c2nc(N)sc2CC(C)C)o1
Rattus norvegicus [2]
  Activity: 26%
Rattus norvegicus [3]
  Time: 2 h
Rattus norvegicus [4]
  F: 22%

## CCOC(=O)C(C)(C)NP(=O)(NC(C)(C)C(=O)OCC)c1ccc(-c2nc(N)sc2SC)o1
Rattus norvegicus [2]
  Activity: 80%
Rattus norvegicus [3]
  Time: 2 h
Rattus norvegicus [4]
  F: 45%

## CCCSc1sc(N)nc1-c1ccc(P(=O)(N[C@@H](CCC)C(=O)OCC)N[C@@H](CCC)C(=O)OCC)o1
Rattus norvegicus [4]
  F: 6%

## CCCSc1sc(N)nc1-c1ccc(P(=O)(N[C@@H](C)C(=O)OC(C)(C)C)N[C@@H](C)C(=O)OC(C)(C)C)o1
Rattus norvegicus [4]
  F: 4%

## CCOC(=O)C(C)(C)NP(=O)(NC(C)(C)C(=O)OCC)c1ccc(-c2nc(N)sc2CC(C)C)o1
Rattus norvegicus [2]
  Activity: 45%
Rattus norvegicus [3]
  Time: 2 h
Rattus norvegicus [4]
  F: 47%

## CCCSc1sc(N)nc1-c1ccc(P(=O)(N[C@H](C(=O)OCC)C(C)C)N[C@H](C(=O)OCC)C(C)C)o1
Rattus norvegicus [4]
  F: 6%

## CCCSc1sc(N)nc1-c1ccc(P(=O)(N[C@@H](CC)C(=O)OCC)N[C@@H](CC)C(=O)OCC)o1
Rattus norvegicus [4]
  F: 6%

## CCOC(=O)C(C)(C)NP(=O)(c1ccc(-c2nc(N)sc2CC(C)C)o1)N1CCCC1 (configuration not stated)
Rattus norvegicus [4]
  F: 37%

## CCOC(=O)C(C)NP(=O)(NC(C)C(=O)OCC)c1ccc(-c2nc(N)sc2CC(C)C)o1 (mixture of isomers)
Rattus norvegicus [2]
  Activity: 52%
Rattus norvegicus [3]
  Time: 2 h
Rattus norvegicus [4]
  F: 28%

## CC(C)Cc1sc(N)nc1-c1ccc(P(=O)(O)O)o1 [MB-05032]
Rattus norvegicus [5]
  Activity: >50%
Rattus norvegicus [4]
  F: 2%
